Assay results from patent US20230357312A1, “Borylated Di-Peptide Amino Acid compositions for use in Boron Neutron Capture Therapy and methods thereof” (TAE Life Sciences, priority 2021, published 2023).
Values after ≈ are worked out from the molar mass of the structure shown.

Assays:
intracranial tumor = conditions: BNCT, Japan, 1968; cited from earlier work
[1] = cited from earlier work
AsPC-1 cells = experiment: Uptake inhibition by PEPT1 competitive inhibitor Gly-SAR; format: cell-based, human; conditions: 0.8 mM test compound, with and without Gly-SAR
Method: (§1) In this experiment, uptake of BPA and dipeptide His-BPA (0.8 mM of each) was carried out in FaDu and ASPC-1 in the presence and absence of the indicated concentrations of PEPT1 dipeptide transporter competitive inhibitor Gly-SAR. Normalized boron uptake was determined as in FIG. 15.

FaDu cells [2] = experiment: as above; format: cell-based, human; conditions: 0.8 mM test compound, with and without Gly-SAR
Method: as §1

CT26 xenografts [3] = experiment: BNCT tumor regression study, 6 minute irradiation; format: in vivo, BALB/c mice; conditions: 6 minutes irradiation
Method: In this experiment, CT26 xenografts in BALB/c mice were dosed with 400 mg/kg of BPA or 900 mg/kg of His-BPA or BPA-BPA. Following one (1) hour treatment time, mice were irradiated for 6 minutes at the Kyoto University Research Reactor (Kyoto, Japan) 1 set at 5 megawatts. Data are the means ± SD of 3 mice per treatment group. Tumors were measured for growth out to 36 days and examined for tumor presence at 40 days. BPA and control groups were sacrificed at day 18 due to excessive tumor growth.

CT26 xenografts [4] = experiment: BNCT study, 12 or 6 minute irradiation at 5 MW; format: in vivo, BALB/c mice; conditions: monitored to 22 days
Method: Following one (1) hour of treatment time, mice were irradiated for either 12 minutes (33(A)) or 6 minutes (33(B)) at the Kyoto University Research Reactor (Kyoto, Japan) 1 set at 5 megawatts. Data are the means ± SD of 3 mice per treatment group. Tumors were measured for growth out to 22 days.

FaDu cells [5] = experiment: Borylated dipeptide uptake in cancer cell lines (boron by ICP-OES); format: cell-based, human; conditions: 2.5 mM in HBSS, 37° C., 2 hrs; FaDu: high LAT1, PEPT1 negative
Method: (§2) The indicated cancer cell line (A) or FaDu cells (B) were harvested from culture and washed twice with PBS. Cell lines were adjusted to 2 million cells/ml in Hanks Balanced Salt Solution (HBSS). BPA or dipeptide boron compounds were added to cells at the final concentration of 2.5 mM in HBSS and the treated cells were incubated at 37° C. 5% CO2 for 2 hrs with shaking. The cells were collected by centrifugation; washed with cold PBS twice and reconstituted in 1 ml of cold PBS. Then, 50 µl of cell suspension was removed, pelleted, and lysed using RIPA buffer and the protein concentration was determined using BCA assay. The remaining 950 µl was used for boron compounds uptake measurements using ICP-OES.
(§3) To this end, 0.5 mL of concentrated nitric acid was added to each cell pellet in a 15 mL conical tube. The tubes were capped and placed in an oven set at 80° C. for 3 hours. 2 mL of water was added’ to each sample to bring the final volume up to 2.5 mL. The boron content in each sample was then measured on an Agilent 5110 ICP-OES using an Agilent SPS4 Autosampler for sample introduction.
The data was analyzed using Agilent’s ICP Expert Software, version 7.4.2.10790. Boron was measured axially at the 249.772 nm wavelength and the internal standard Beryllium was measured axially at the 313.042 nm wavelength. Beryllium was tee-ed into the solution at 1:5 the flowrate before introduction to the spray chamber. A standard curve using 1000, 100, 10, 1 and 0 ppb of boron was used to calculate the concentration of boron in each sample. Once determined, the boron measurement for each sample was normalized to protein content and final boron uptake results were expressed as ng boron/mg protein.
In another experiment, uptake of BPA and dipeptide His-BPA was carried out in FaDu, and ASPC-1 as described in FIG. 15. […] Accordingly, the data supports the finding that borylated dipeptides may be taken up efficiently in PEPT1 or other dipeptide transporter expressing cancers. See, FIG. 16(C).
In this experiment, the uptake of several dipeptide and dipeptide analogs was carried out in FaDu and ASPC-1 cells. Normalized boron uptake was determined as in FIG. 15. […] However, several dipeptides are still taken up in PEPT1 negative FaDu cells, although to a lower extent, which further confirms the proposition that an uptake mechanism does exist in FaDu cells for these dipeptides that is not PEPT1. See, FIG. 19.

FaDu cells [6] = experiment: Dipeptide degradation to BPA by HPLC; format: in vitro ADME, human; conditions: for relative conversion into BPA in the presence of cells: 2.5 mM in HBSS, 4 hrs at 37° C., FaDu cells, RP-HPLC/MS semi-quantitative
Method: In this experiment, to investigate whether dipeptides are converted to BPA, which is then taken up through its cognate transporter, evaluation of whether dipeptides remained intact in the tissue culture media in the presence of absence of cancer cells was made using the following protocols. Briefly, FaDu cells were harvested and counted. The cell number was adjusted to 50×10^5 / mL in the HBSS tissue culture medium using 1 mL per well. The cells were incubated at 37° C. in the 5% CO2 overnight. At the end, the supernatants were aspirated, and cells were rinsed with 1 mL PBS once. Each test article was prepared at 2.5 mM concentration in HBSS medium, and 0.4 mL was added to cells. After 4 hrs. at 37° C. the supernatants were harvested and analyzed by RP HPLC using an ACQUITY BEH C18 column 2.1 × […] (Waters) equipped with a matching guard column equilibrated with 2% aqueous acetonitrile/0.1% formic acid mobile phase. The dipeptides were separated in the gradient of 90% acetonitrile/10% water/0.1% formic acid to 20% in 6 min and identified by UV225 nm. The masses were confirmed by an online QDA mass spectrometer. Breakdown of the original dipeptide was quantitated by comparing with the control - the same dipeptide incubated in the same fashion in the absence of cells. Stabilities of BPA-BPA, Ala-BPA, and BPA-Ala were compared, and the formation of BPA was measured semi-quantitatively by RP-HPLC/MS.

CT26 = experiment: Borylated dipeptide uptake in cancer cell lines (boron by ICP-OES); format: cell-based, mouse; conditions: 2.5 mM in HBSS, 37° C., 2 hrs
Method: as §2
as §3, with “2 mL of water was added’ to each sample to bring the final volume up to 2.5 mL.” left out
(§4) The data was analyzed using Agilent’s ICP Expert Software, version 7.4.2.10790. Boron was measured axially at the 249.772 nm wavelength and the internal standard Beryllium was measured axially at the 313.042 nm wavelength. […] Once determined, the boron measurement for each sample was normalized to protein content and final boron uptake results were expressed as ng boron/mg protein.

Solubility = format: physicochemical
[7] = Pharmacokinetics (blood boron by ICP OES); format: in vivo, Balb/C non-tumor bearing male mice; conditions: tail vein injection
Method: In this experiment, pharmacokinetics of BPA-BPA was evaluated using the following protocols. Briefly, […] of each compound was injected in the tail vein of Balb/C non-tumor bearing male mice (5 mice per group). Blood was drawn at the following time points: 2, 5, 16, 30, 60, 120 and 240 minutes into EDTA-coated tubes. Boron concentration was measured using ICP OES following the digestion in concentrated nitric acid for 1 hour. The boron concentration was normalized to 1 mL of blood and plotted using GraphPad Prizm. The PK parameters (see, FIG. 22, Table) were obtain using PK Solver ver. 2.0 using compartmental analysis BPA-fructose was used as a reference substance.

[8] = Pharmacokinetics of BPA-BPA
Source text: Table printed on a drawing sheet, Figure 28, continued. Title: Pharmacokinetics of BPA-BPA The patent's description of the figure: FIG. 28. Pharmacokinetics of BPA-BPA. First reader's note: Continuation of Figure 28; BPA-BPA is a borylated dipeptide, BPA Fructose is the comparator formulation.

A431 = experiment: Borylated dipeptide uptake in cancer cell lines (boron by ICP-OES); format: cell-based; conditions: 2.5 mM in HBSS, 37° C., 2 hrs
Method: as §2
as §3, with “2 mL of water was added’ to each sample to bring the final volume up to 2.5 mL.” left out
as §4

[9] = test system: FaDu, Detroit-562, MeWo, HCC-1954, A549 and AsPC-1 human cancer xenograft models; experiment: Dose escalation of boron delivery, all tested xenograft models; format: in vivo, CB17 SCID mice; conditions: 1000 mg/kg, 120 minutes
Method: Tumors were harvested 120 minutes following treatment and boron content determined by ICP-OES. Data are the means ± SD of 5 mice per treatment group.

T98G = experiment: Borylated dipeptide uptake in cancer cell lines (boron by ICP-OES); format: cell-based, human; conditions: 2.5 mM in HBSS, 37° C., 2 hrs
Method: as §2
as §3, with “2 mL of water was added’ to each sample to bring the final volume up to 2.5 mL.” left out
as §4

## sodium borocaptate [BSH]
Intracranial tumor
  5-year survival rate: 58%

## N[C@@H](Cc1ccc(B(O)O)cc1)C(=O)O [BPA, 4-Borono-L-phenylalanine, reference compound]
[1]; L-BPA without fructose
  solubility: 1700 µg/mL (≈ 8.13 mM)
[1]; fructose formulation, quasi-stable solution
  concentration achieved with fructose formulation: 30000 µg/mL
AsPC-1 cells
  effect of Gly-SAR on boron uptake: no effect
FaDu cells [2]
  effect of Gly-SAR on boron uptake: no effect
CT26 xenografts [3]; 400 mg/kg, group sacrificed by day 18
  tumor growth after BNCT: continued tumor growth
CT26 xenografts [4]; 200 mg/kg, 6 minutes irradiation at 5 MW
  tumor growth after BNCT: only modest tumor inhibition
CT26 xenografts [4]; 200 mg/kg, 12 minutes irradiation at 5 MW
  tumor growth after BNCT: significant and similar growth inhibition, even regression
FaDu cells [5]
  boron uptake (compared in words): to a much greater extent than His-BPA

## CC(C)C[C@H](N)C(=O)N[C@@H](Cc1ccc(B(O)O)cc1)C(=O)O [Leu-BPA, Leucine-BPA]
FaDu cells [5]
  boron uptake (compared in words): to a lower extent than BPA

## C[C@H](N)C(=O)N[C@@H](Cc1ccc(B(O)O)cc1)C(=O)O [Ala-BPA, Alanine-BPA]
FaDu cells [5]
  boron uptake (compared in words): to a lower extent than BPA
FaDu cells [6]
  relative conversion into BPA in the presence of cells: Ala-BPA > BPA-BPA > BPA-Ala

## N[C@@H](Cc1ccc(B(O)O)cc1)C(=O)N[C@@H](Cc1ccc(B(O)O)cc1)C(=O)O [BPA-BPA]
CT26
  boron uptake compared to BPA: to a similar extent
CT26 xenografts [3]; 900 mg/kg, sustained out to 36 days
  tumor growth after BNCT: significant tumor regression
CT26 xenografts [4]; 800 mg/kg, 12 minutes irradiation at 5 MW
  tumor growth after BNCT: significant and similar growth inhibition, even regression
FaDu cells [5]
  boron uptake (compared in words): slightly lower than the LAT1 substrate BPA
Solubility
  solubility (in words, compared to BPA): improved solubility
FaDu cells [6]
  relative conversion into BPA in the presence of cells: Ala-BPA > BPA-BPA > BPA-Ala
FaDu cells [6]; 2.5 mM, 4 hrs, media, no cells
  formation of BPA in the absence of cells: Only trace amount of BPA
[7]
  clearance (CL) compared to BPA: remarkably similar
  total drug exposure across time (AUC from zero to infinity) compared to BPA: marginally lower
  t½ beta (elimination phase) compared to BPA: remarkably similar
[7]; blood boron
  pharmacokinetic profile: bi-phasic pharmacokinetics
[8]
  AUC (0 − t): 20463.9 µg·min/mL
  AUC (0 − ∞): 29133.2 µg·min/mL
  C0: 522.0 µg/mL
  CL, mg/(μg/mL)/min: 0.000113 mg/(μg/mL)/min
  CMAX: 362.83 µg/mL
A431
  boron uptake compared to BPA: slightly lower than the LAT1 substrate BPA
[9]
  tumor boron delivery, rank among treatments: greatest boron to all tested xenografts
T98G
  boron uptake compared to BPA: to a similar extent

## CC(NC(=O)[C@@H](N)Cc1ccc(B(O)O)cc1)C(=O)O (stereo partly drawn) [BPA-Ala, BPA-Alanine]
FaDu cells [5]
  boron uptake (compared in words): to a lower extent than BPA
FaDu cells [6]
  relative conversion into BPA in the presence of cells: Ala-BPA > BPA-BPA > BPA-Ala
